Laboratory results as given in US11813340B2, “PSMA targeted radiohalogenated urea-polyaminocarboxylates for cancer radiotherapy” (The Johns Hopkins University, priority 2018, dated 2023).
Entries after “also recorded” stand apart in the source; their conditions may differ.

Key:
[1] = system: PSMA + PC3-PIP and PSMA-PC3-flu flank xenografts; test: Biodistribution of At-211 labeled PSMA inhibitors with and without cold blocking agent (Tables 6-8); type: in vivo, athymic mice
Procedure: Organs were harvested 1, 4, and 24 h post-injection (n=5 per time point).

[2] = system: PSMA+PC3-PIP and PSMA-PC3-flu flank xenografts; test: Biodistribution of [125I/211At]2 and 3 with and without co-injection of DCIBzL (Example 6); type: in vivo, athymic mice
Text: Final compounds were purified by HPLC.

PSMA+ PC3-PIP = test: Efficacy in subcutaneous (SC) PSMA+ PC3-PIP model; type: in vivo, NOD/SCID/IL-2rγ−/− (NSG) mice; settings: single intravenous injection of different doses; FIG. 3A
Procedure: (§1) Two murine models of human PC were generated, a subcutaneous (SC) model of PSMA+PC3-PIP and PSMA-PC3-flu cells and a metastatic model of PSMA+ PC3ML/PSMA/fLuc in NOD/SCID/IL-2rγ−/− (NSG) mice. Single intravenous injection of different doses (FIG. 3) was given to each animal and the tumor progression was monitored by measuring the SC tumor volume or by performing bioluminescence imaging for the metastatic model.

PSMA− PC3-flu = test: Efficacy in subcutaneous (SC) PSMA− PC3-flu model; type: in vivo, NOD/SCID/IL-2rγ−/− (NSG) mice; settings: single intravenous injection of different doses; FIG. 3A
Procedure: as §1

CD-1 mice = test: Long-term toxicity in healthy immunocompetent mice; type: in vivo; settings: 1.48 MBq, 0.74 MBq, 0.244 MBq; up to 4 months after treatment
[3] = system: PSMA + PC3-PIP and PSMA-PC3-flu flank xenografts; settings: previously shown, Mease et al., 2018; cited from earlier work
[4] = 21-24 Hour (footnote b), + 0.25 nmole YC-I-27
[5] = 21-24 Hour (footnote b), no blocker

Q: With `O=C([O-])CN1CCN(CC(=O)[O-])CCN(CC(=O)NCCCCC(=O)N(CCCC[C@H](NC(=O)N[C@@H](CCC(=O)O)C(=O)O)C(=O)O)Cc2ccc([211At])cc2)CCN(CC(=O)[O-])CC1.[Lu+3]` [[^211At]VK-02-90-Lu] as the molecule, how does the “Biodistribution, Blood” value ([1]; 1 Hour, 0.5 nmole YC-I-27) read?
A: Its value is 0.5 ± 0.1 % injected dose/g.

Q: What about the “Biodistribution, Flu tumor” value ([1]; 1 Hour, 0.5 nmole YC-I-27) of the same molecule?
A: Its value is 0.4 ± 0.1 % injected dose/g.

Q: What about the “Biodistribution, PIP tumor” value ([1]; 1 Hour, 0.5 nmole YC-I-27) of the same molecule?
A: The value was 25.4 ± 4.4 % injected dose/g.

Q: What about the “Biodistribution, Spleen” value ([1]; 1 Hour, 0.5 nmole YC-I-27) of the same molecule?
A: Its value is 0.3 ± 0.4 % injected dose/g.

Q: What about the “Biodistribution, Stomach” value ([1]; 1 Hour, 0.5 nmole YC-I-27) of the same molecule?
A: The value was 0.4 ± 0.2 % injected dose/g.

Q: And the “Biodistribution, kidney” value ([1]; 1 Hour, 0.5 nmole YC-I-27)?
A: The value was 2.2 ± 0.6 % injected dose/g.

Q: What about the “Biodistribution, lacrimal gland” value ([1]; 1 Hour, 0.5 nmole YC-I-27) of the same molecule?
A: Its value is 0 % injected dose/g.

Q: What about the “Biodistribution, salivary gland” value ([1]; 1 Hour, 0.5 nmole YC-I-27) of the same molecule?
A: The value was 0.4 ± 0.15 % injected dose/g.

Q: And the “Biodistribution, Blood” value ([1]; 1 Hour, + 0.25 nmole YC-I-27)?
A: Its value is 0.6 ± 0.04 % injected dose/g.

Q: What about the “Biodistribution, Flu tumor” value ([1]; 1 Hour, + 0.25 nmole YC-I-27) of the same molecule?
A: Its value is 0.4 ± 0.1 % injected dose/g.

Q: What about the “Biodistribution, PIP tumor” value ([1]; 1 Hour, + 0.25 nmole YC-I-27) of the same molecule?
A: Its value is 34.2 ± 7.8 % injected dose/g.

Q: What about the “Biodistribution, Spleen” value ([1]; 1 Hour, + 0.25 nmole YC-I-27) of the same molecule?
A: The value was 0.5 ± 0.4 % injected dose/g.

Q: What about the “Biodistribution, Stomach” value ([1]; 1 Hour, + 0.25 nmole YC-I-27) of the same molecule?
A: The value was 0.4 ± 0.2 % injected dose/g.

Q: What about the “Biodistribution, kidney” value ([1]; 1 Hour, + 0.25 nmole YC-I-27) of the same molecule?
A: Its value is 5.0 ± 1.6 % injected dose/g.

Q: What about the “Biodistribution, lacrimal gland” value ([1]; 1 Hour, + 0.25 nmole YC-I-27) of the same molecule?
A: Its value is 0.1 ± 0.4 % injected dose/g.

Q: And the “Biodistribution, salivary gland” value ([1]; 1 Hour, + 0.25 nmole YC-I-27)?
A: Its value is 0.4 ± 0.15 % injected dose/g.

Q: And the “Biodistribution, Blood” value ([1]; 1 Hour, no blocker)?
A: The value was 0.8 ± 0.2 % injected dose/g.

Q: What about the “Biodistribution, Flu tumor” value ([1]; 1 Hour, no blocker) of the same molecule?
A: The value was 0.4 ± 0.2 % injected dose/g.

Q: What about the “Biodistribution, PIP tumor” value ([1]; 1 Hour, no blocker) of the same molecule?
A: The value was 30.6 ± 4.8 % injected dose/g.

Q: What about the “Biodistribution, Spleen” value ([1]; 1 Hour, no blocker) of the same molecule?
A: The value was 2.5 ± 0.9 % injected dose/g.

Q: And the “Biodistribution, Stomach” value ([1]; 1 Hour, no blocker)?
A: Its value is 0.4 ± 0.1 % injected dose/g.

Q: What about the “Biodistribution, kidney” value ([1]; 1 Hour, no blocker) of the same molecule?
A: The value was 90 ± 43 % injected dose/g.

Q: What about the “Biodistribution, lacrimal gland” value ([1]; 1 Hour, no blocker) of the same molecule?
A: The value was 0.8 ± 0.9 % injected dose/g.

Q: And the “Biodistribution, salivary gland” value ([1]; 1 Hour, no blocker)?
A: Its value is 0.5 ± 0.2 % injected dose/g.

Q: What about the “Biodistribution, Blood” value ([1]; 4 H, 0.5 nmole YC-I-27) of the same molecule?
A: Its value is 0.2 ± 0.1 % injected dose/g.

Q: What about the “Biodistribution, Flu tumor” value ([1]; 4 H, 0.5 nmole YC-I-27) of the same molecule?
A: Its value is 0.1 ± 0.04 % injected dose/g.

Q: And the “Biodistribution, PIP tumor” value ([1]; 4 H, 0.5 nmole YC-I-27)?
A: The value was 18.7 ± 5.4 % injected dose/g.

Q: And the “Biodistribution, Spleen” value ([1]; 4 H, 0.5 nmole YC-I-27)?
A: Its value is 0.8 ± 0.5 % injected dose/g.

Q: And the “Biodistribution, Stomach” value ([1]; 4 H, 0.5 nmole YC-I-27)?
A: Its value is 0.4 ± 0.05 % injected dose/g.

Q: What about the “Biodistribution, kidney” value ([1]; 4 H, 0.5 nmole YC-I-27) of the same molecule?
A: The value was 0.7 ± 0.1 % injected dose/g.

Q: And the “Biodistribution, lacrimal gland” value ([1]; 4 H, 0.5 nmole YC-I-27)?
A: Its value is 0 % injected dose/g.

Q: What about the “Biodistribution, salivary gland” value ([1]; 4 H, 0.5 nmole YC-I-27) of the same molecule?
A: Its value is 0.3 ± 0.2 % injected dose/g.

Q: And the “Biodistribution, Blood” value ([1]; 4 H, + 0.25 nmole YC-I-27)?
A: Its value is 0.2 ± 0.1 % injected dose/g.

Q: What about the “Biodistribution, Flu tumor” value ([1]; 4 H, + 0.25 nmole YC-I-27) of the same molecule?
A: Its value is 0.1 ± 0.2 % injected dose/g.

Q: And the “Biodistribution, PIP tumor” value ([1]; 4 H, + 0.25 nmole YC-I-27)?
A: The value was 27.8 ± 8.7 % injected dose/g.

Q: And the “Biodistribution, Spleen” value ([1]; 4 H, + 0.25 nmole YC-I-27)?
A: Its value is 0.1 ± 0.5 % injected dose/g.

Q: What about the “Biodistribution, Stomach” value ([1]; 4 H, + 0.25 nmole YC-I-27) of the same molecule?
A: The value was 0.5 ± 0.3 % injected dose/g.

Q: And the “Biodistribution, kidney” value ([1]; 4 H, + 0.25 nmole YC-I-27)?
A: Its value is 1.4 ± 0.3 % injected dose/g.

Q: What about the “Biodistribution, lacrimal gland” value ([1]; 4 H, + 0.25 nmole YC-I-27) of the same molecule?
A: The value was 0.4 ± 0.4 % injected dose/g.

Q: And the “Biodistribution, salivary gland” value ([1]; 4 H, + 0.25 nmole YC-I-27)?
A: Its value is 0.2 ± 0.1 % injected dose/g.

Q: And the “Biodistribution, Blood” value ([1]; 4 H, no blocker)?
A: The value was 0.1 ± 0.03 % injected dose/g.

Q: What about the “Biodistribution, Flu tumor” value ([1]; 4 H, no blocker) of the same molecule?
A: The value was 0.1 ± 0.1 % injected dose/g.

Q: What about the “Biodistribution, Spleen” value ([1]; 4 H, no blocker) of the same molecule?
A: Its value is 0 % injected dose/g.

Q: And the “Biodistribution, Stomach” value ([1]; 4 H, no blocker)?
A: The value was 0.3 ± 0.2 % injected dose/g.

Q: And the “Biodistribution, kidney” value ([1]; 4 H, no blocker)?
A: Its value is 2.1 ± 0.6 % injected dose/g.

Q: And the “Biodistribution, lacrimal gland” value ([1]; 4 H, no blocker)?
A: The value was 0.3 ± 1.1 % injected dose/g.

Q: What about the “Biodistribution, salivary gland” value ([1]; 4 H, no blocker) of the same molecule?
A: The value was 0.2 ± 0.1 % injected dose/g.

Q: What about the “Biodistribution, Blood” value [1, 4] of the same molecule?
A: Its value is 0.3 ± 1.0 % injected dose/g.

Q: And the “Biodistribution, Flu tumor” value [1, 4]?
A: Its value is 0.04 ± 0.2 % injected dose/g.

Q: And the “Biodistribution, PIP tumor” value [1, 4]?
A: Its value is 15.3 ± 8.0 % injected dose/g.

Q: What about the “Biodistribution, Spleen” value [1, 4] of the same molecule?
A: The value was 0 % injected dose/g.

Q: And the “Biodistribution, Stomach” value [1, 4]?
A: The value was 0.3 ± 0.4 % injected dose/g.

Q: And the “Biodistribution, kidney” value [1, 4]?
A: The value was 0.3 ± 0.4 % injected dose/g.

Q: And the “Biodistribution, lacrimal gland” value [1, 4]?
A: The value was 0 % injected dose/g.

Q: What about the “Biodistribution, salivary gland” value [1, 4] of the same molecule?
A: The value was 0 % injected dose/g.

Q: What about the “Biodistribution, Blood” value [1, 5] of the same molecule?
A: The value was 0 % injected dose/g.

Q: And the “Biodistribution, Flu tumor” value [1, 5]?
A: Its value is 0 % injected dose/g.

Q: What about the “Biodistribution, PIP tumor” value [1, 5] of the same molecule?
A: Its value is 9.5 ± 1.0 % injected dose/g.

Q: And the “Biodistribution, Spleen” value [1, 5]?
A: Its value is 0 % injected dose/g.

Q: What about the “Biodistribution, Stomach” value [1, 5] of the same molecule?
A: The value was 0 % injected dose/g.

Q: What about the “Biodistribution, kidney” value [1, 5] of the same molecule?
A: The value was 0.02 ± 0.2 % injected dose/g.

Q: And the “Biodistribution, lacrimal gland” value [1, 5]?
A: Its value is 0 % injected dose/g.

Q: And the “Biodistribution, salivary gland” value [1, 5]?
A: The value was 0 % injected dose/g.

Q: And the “Biodistribution, Blood” value ([1]; 21-24 Hour, 0.5 nmole YC-I-27)?
A: Its value is 0.03 ± 0.3 % injected dose/g.

Q: And the “Biodistribution, Flu tumor” value ([1]; 21-24 Hour, 0.5 nmole YC-I-27)?
A: The value was 0.2 ± 0.3 % injected dose/g.

Q: And the “Biodistribution, PIP tumor” value ([1]; 21-24 Hour, 0.5 nmole YC-I-27)?
A: The value was 17.5 ± 7.9 % injected dose/g.

Q: What about the “Biodistribution, Spleen” value ([1]; 21-24 Hour, 0.5 nmole YC-I-27) of the same molecule?
A: The value was 2.5 ± 4.3 % injected dose/g.

Q: And the “Biodistribution, Stomach” value ([1]; 21-24 Hour, 0.5 nmole YC-I-27)?
A: The value was 0.4 ± 0.7 % injected dose/g.

Q: And the “Biodistribution, kidney” value ([1]; 21-24 Hour, 0.5 nmole YC-I-27)?
A: Its value is 0.4 ± 0.5 % injected dose/g.

Q: And the “Biodistribution, lacrimal gland” value ([1]; 21-24 Hour, 0.5 nmole YC-I-27)?
A: Its value is 0 % injected dose/g.

Q: What about the “Biodistribution, salivary gland” value ([1]; 21-24 Hour, 0.5 nmole YC-I-27) of the same molecule?
A: The value was 0 % injected dose/g.

Q: What about the “kidney and stomach uptake” value ([1]; compared to other At-211 labeled PSMA inhibitors) of the same molecule?
A: The value was “lower kidney and stomach uptake”.

Q: What about the Stomach uptake ([2]; @ 1 h) of the same molecule?
A: The Stomach uptake was 0.4±0.2 % ID/g.

Q: What about the “retention, K” value ([2]; @1 h, co-injection of DCIBzL) of the same molecule?
A: Its value is 2.2±0.6 % ID/g.

Q: What about the “retention, LG” value ([2]; @1 h, co-injection of DCIBzL) of the same molecule?
A: Its value is “below detection”.

Q: What about the “retention, SG” value ([2]; @1 h, co-injection of DCIBzL) of the same molecule?
A: Its value is 0.4±0.15 % ID/g.

Q: And the Stomach uptake ([2]; @ 4 h)?
A: Its Stomach uptake is 0.4±0.05 % ID/g.

Q: What about the Stomach uptake ([2]; @ 24 h) of the same molecule?
A: The Stomach uptake was 0.4±0.7 % ID/g.

Q: What about the “^211At uptake in PSMA+ PC3-PIP xenografts” value ([2]; combined with DCIBzL) of the same molecule?
A: The value was 25.4±4.4 % ID/g.

Q: What about the deastatination in vivo ([2]; mouse, in vivo, listed as [^211At]3) of the same molecule?
A: The deastatination in vivo was “negligible deastatination; also recorded: no evidence of deastatination in vivo”.

Q: What about the “response in PSMA+ PC3-PIP SC model (SC tumor volume)” value (PSMA+ PC3-PIP) of the same molecule?
A: The value was “dose-dependent response; also recorded: dose-dependent efficacy”.

Q: And the “effect on PSMA− PC3-flu SC model” value (PSMA− PC3-flu)?
A: The value was “no effect”.

Q: And the “treatment-related toxicity (overall health status and urinalysis)” value (CD-1 mice)?
A: The value was “No CD-1 animals showed treatment-related toxicity”.

Q: And the renal clearance [3]?
A: The renal clearance was “rapid renal clearance”.

Q: What about the “retention in PSMA+tumors” value [3] of the same molecule?
A: Its value is “persistent retention”.
